From US20100150930A1, “MAGE-11 AS A MARKER FOR ENDOMETRIAL RECEPTIVITY TO EMBRYO TRANSPLANTATION AND A MARKER AND THERAPEUTIC TARGET IN CASTRATION-RECURRENT PROSTATE CANCER” (The University of North Carolina at Chapel Hill, priority 2007, published 2010) come the findings set out here.

The subject of experiment [1] is MAGE-11 mRNA. Put plainly: MAGE-11 mRNA by real-time PCR in ECC-1 cells. The format is cell-based, human. As to conditions: for change in MAGE-11 mRNA levels: 100 Units/ml hCG, 10 nM progesterone, 10 nM DHT or 10 ng/ml EGF. Here is the method: (§1) For MAGE-11 and AR mRNA in the human endometrial ECC-1 and Ishikawa cell lines, cells were passed 4 days prior to each experiment into medium without phenol red containing 5% charcoal stripped serum (Atlanta Biologicals, Lawrenceville, Ga.). […] RNA was extracted using RNeasy Plus Mini kit (Qiagen, Valencia, Calif.) and cDNA prepared from 4 μg total RNA as above. β-Glucuronidase (GusB) forward primer 5′-[…]-3′ (SEQ ID NO:4) and reverse primer 5′-[…]-3′ (SEQ ID NO:5) amplify a 65 by region coding for amino acid residues 120-140. The 5′-[…]-3′ (SEQ ID NO:6) GusB probe overlaps the exon 2 and 3 boundary. PCR was carried out in 20 μl reactions containing cDNA from 0.4 μg total RNA, 4 μl LightCycler TaqMan Master mix (Roche, Indianapolis, Ind.) and 0.5 μl 20× TaqMan Mix (Applied Biosystems, Foster City, Calif.) for AR or MAGE-11, or 0.5 μM primer and 0.2 μM probe for GusB. PCR reactions were 1 cycle at 95° C. for 10 min followed by 55 cycles of 95° C. for 15 sec, 60° C. for 25 sec and 72° C. for 1 sec in a Roche Lightcycler. […] Results were averaged from duplicates of 6 or 10 cm dishes of ECC-1 or Ishikawa cell cultures.

In a further experiment the test system is AR mRNA. Briefly: AR mRNA by real-time PCR in ECC-1 cells. The format is cell-based, human. The method, then:
as §1
For orientation: Quantitative PCR measures a nucleic acid by following its amplification.

Experiment [2] concerns MAGE-11 mRNA. Briefly: MAGE-11 mRNA by real-time PCR in Ishikawa cells. The format is cell-based, human. Particulars: for change in MAGE-11 mRNA levels: 100 Units/ml hCG, 10 nM progesterone, 10 nM DHT or 10 ng/ml EGF. Here is the method:
as §1

In a further experiment the test system is Flag-MAGE-11. As to conditions: COS cells, with wild-type AR, 2 and 10 nM DHT, 24 h.
Experiment [3] relates to MAGE-11 mRNA. Put plainly: MAGE-11 mRNA by real time RT-PCR in LNCaP cells. The format is cell-based, human.
The next experiment deals with MAGE-11 protein. Put plainly: MAGE-11 immunoblot in Ishikawa cells. The format is cell-based, human. As to conditions: 10 nM E2, 48 h. (Immunoblotting shows a protein as a band on a membrane.)
The test system of experiment [4] is PR-B. Put plainly: PR immunoblot in Ishikawa cells. The format is cell-based, human. As to conditions: 10 nM E2 for 48 h.
Protocol: (§2) Immunoblot analysis. MAGE-11, AR, PR and ERα protein levels in ECC-1 (2×10^6/6 cm dish) and Ishikawa cells (4×10^6/10 cm dish) were determined by immunoblot. Cells were plated in medium without phenol red containing 5% charcoal stripped serum after culturing in the same media for 4 days. Cells were treated, washed and harvested in cold phosphate buffered saline containing 1 mM dithiothreitol, 1 mM phenylmethylsulfonyl fluoride, 5 μg/ml leupeptin, 5 μg/ml pepstatin A and 5 μg/ml aprotinin, and solubilized in buffer containing 1% Triton X-100, 0.15 M NaCl, 0.5 mM EDTA, 1% sodium deoxycholate, 0.1% SDS, 50 mM Tris-HCl, pH 7.4 and protease inhibitors listed above. […] Protein concentration was determined by BioRad assay using bovine serum albumin as standard.
For experiment [5], the system named is PR-B. Put plainly: PR immunoblot in ECC-1 cells. It is filed as cell-based, human. Particulars: 10 nM E2 for 48 h.
Protocol: as §2

Protocol for MAGE-11 protein: as §2

Regarding `C[C@]12CC[C@@H]3c4ccc(O)cc4C[C@@H](CCCCCCCCC[S+]([O-])CCCC(F)(F)C(F)(F)F)[C@H]3[C@@H]1CC[C@@H]2O` (stereo partly shown) [ICI-182,780], the “effect on MAGE-11 mRNA levels” value in the experiment with MAGE-11 mRNA [1] (ECC-1 cells, 1 μM ICI-182,780 in the absence and presence of E2 (0.1 nM), 48 h) is “increased”. In the experiment with AR mRNA (1 μM ICI-182,780), the “effect on E2 induced increase in AR mRNA” value is reported as “blocked”.
For `C=C[C@@]1(C)CC(=O)[C@]2(O)[C@@]3(C)[C@@H](O)CCC(C)(C)[C@@H]3[C@H](O)[C@H](OC(C)=O)[C@@]2(C)O1` [forskolin], the “increase in MAGE-11 mRNA levels” value in the experiment with MAGE-11 mRNA [1] (ECC-1 cells, 50 μM) is given as roughly 4 fold; in the experiment with MAGE-11 mRNA [2] (50 μM), roughly 4 fold.
With `C[C@]12CCC(=O)C[C@@H]1CC[C@@H]1[C@@H]2CC[C@]2(C)[C@@H](O)CC[C@@H]12` [DHT, dihydrotestosterone], in the experiment with Flag-MAGE-11, the “effect on MAGE-11 protein levels” value is “declined”. Moreover, the “change in MAGE-11 mRNA levels” value with MAGE-11 mRNA [1] (ECC-1 cells) and in the experiment with MAGE-11 mRNA [2] was “unchanged” each time.
Take `CC(=O)[C@H]1CC[C@H]2[C@@H]3CCC4=CC(=O)CC[C@]4(C)[C@H]3CC[C@]12C` [progesterone]: the “MAGE-11 mRNA with progesterone after E2 pretreatment” value in the experiment on MAGE-11 mRNA [1] (ECC-1 cells, pretreatment with 10 nM E2 for 48 h (data not shown)) is “no increase”; in the experiment with MAGE-11 mRNA [2] (pretreatment with 10 nM E2 for 48 h (data not shown)), “no increase”. For the same molecule, the “change in MAGE-11 mRNA levels” value with MAGE-11 mRNA [1] (ECC-1 cells) and with MAGE-11 mRNA [2] was “unchanged” in each case.
For “EGF: EGF growth factor, used at 10 ng/ml”, the “change in MAGE-11 mRNA levels” value in the experiment on MAGE-11 mRNA [1] (ECC-1 cells) and with MAGE-11 mRNA [2] was “unchanged” in each case.
In the case of `C[C@]12CC[C@@H]3c4ccc(O)cc4CC[C@H]3[C@@H]1CC[C@@H]2O` [E2, 17β-estradiol], the “effect on cyclic-AMP induction of MAGE-11 mRNA” value with MAGE-11 mRNA [3] was “not inhibited”. The “effect on ~67 kDa MAGE-11 protein level” value with MAGE-11 protein is on record as “declined”. Further, the “effect on PR-B levels” value with PR-B [4] and in the experiment with PR-B [5] was “increased” in each case. For the same molecule, in the experiment on MAGE-11 mRNA [1] (ECC-1 cells), the “time required for inhibitory effect on MAGE-11 mRNA” value was “more than 6 h”. In addition, the “effect on increase in MAGE-11 mRNA levels during culture” value with MAGE-11 mRNA [1] (ECC-1 cells, 0.01 nM E2, dose response, 48 h) is listed as “partial inhibition”; with MAGE-11 mRNA [1] (ECC-1 cells, 10 nM E2, 72 h culture in phenol red-free, charcoal stripped serum medium), “blocked”. Moreover, the “effect on cAMP induced increase in MAGE-11 mRNA” value in the experiment on MAGE-11 mRNA [1] (ECC-1 cells, 10 nM E2 with 2 mM dibutyryl-cAMP, greater extent than in Ishikawa cells) is recorded as “inhibited”; in the experiment on MAGE-11 mRNA [2] (10 nM E2 with dibutyryl-cAMP, 48 h, lesser extent than in ECC-1 cells), “inhibited”. In addition, the “concentration required to partially inhibit MAGE-11 expression relative to that required to increase AR expression (fold less)” value in the experiment on MAGE-11 mRNA [1] (endometrial cell lines) is recorded as roughly 100 fold. Further, in the experiment on AR mRNA (10 nM E2), the “increase in AR mRNA levels” value is on record as roughly 3 fold. Moreover, the “E2 concentration required to increase AR mRNA” value in the experiment on AR mRNA (dose response, 48 h) was 1 nM.
